#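 Growth conditions: 96-well plates. Treatment: test compound, 48 hours, 5 concentrations. Analysis: linear interpolation between bracketing concentrations; unreached endpoints set to highest concentration. GI50: concentration for 50% inhibition of growth.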 Calls of active or inactive are those of the source. No stated cut-off is given here; in the data, active = GI50 up to about 1.1 µM and inactive = higher.
# Tests used:
# Assay in all cases: inhibition of tumour cell growth, NCI panel, 48 h
# OVCAR-5 = test system: OVCAR-5
# SN12C = test system: SN12C
# RPMI-8226 = test system: RPMI-8226
# M14 = test system: M14
# EKVX = test system: EKVX
# HOP-62 = test system: HOP-62
# UACC-257 = test system: UACC-257
# SK-OV-3 = test system: SK-OV-3
# SF-268 = test system: SF-268
# OVCAR-8 = test system: OVCAR-8
# A498 = test system: A498
# HOP-92 = test system: HOP-92
# KM12 = test system: KM12
# CAKI-1 = test system: CAKI-1
# SNB-75 = test system: SNB-75
# HL-60 = test system: HL-60
# RXF 393 = test system: RXF 393
Compound,GI50 (OVCAR-5),GI50 (SN12C),GI50 (RPMI-8226),GI50 (M14),GI50 (EKVX),GI50 (HOP-62),GI50 (UACC-257),GI50 (SK-OV-3),GI50 (SF-268),GI50 (OVCAR-8),GI50 (A498),GI50 (HOP-92),GI50 (KM12),GI50 (CAKI-1),GI50 (SNB-75),GI50 (HL-60),GI50 (RXF 393)
O=C1Cc2ccccc2N1/N=C\c1ccc(O)cc1,> 100 µM (inactive),> 100 µM (inactive),58.1 µM (inactive),> 100 µM (inactive),82.2 µM (inactive),49.7 µM (inactive),47 µM (inactive),> 100 µM (inactive),50.6 µM (inactive),> 100 µM (inactive),> 100 µM (inactive),> 100 µM (inactive),> 100 µM (inactive),> 100 µM (inactive),18.1 µM (inactive),,
COC[n+]1cc2cc(OC)c(OC)cc2c2ccc3cc(OC)c(OC)cc3c21,> 100 µM (inactive),> 100 µM (inactive),> 100 µM (inactive),> 100 µM (inactive),> 100 µM (inactive),> 100 µM (inactive),> 100 µM (inactive),,> 100 µM (inactive),> 100 µM (inactive),,> 100 µM (inactive),> 100 µM (inactive),> 100 µM (inactive),> 100 µM (inactive),> 100 µM (inactive),> 100 µM (inactive)
CC(=O)OCC(=O)[C@@]1(O)CC[C@H]2[C@@H]3C[C@H](C)C4=CC(=O)C=C[C@]4(C)[C@@]3(F)[C@@H](O)C[C@@]21C,12.9 µM (inactive),,23.7 µM (inactive),> 100 µM (inactive),> 100 µM (inactive),> 100 µM (inactive),> 100 µM (inactive),0.0131 µM (active),> 100 µM (inactive),,,> 100 µM (inactive),> 100 µM (inactive),> 100 µM (inactive),73.8 µM (inactive),> 100 µM (inactive),> 100 µM (inactive)
NCCNC(=O)c1cccc2cc3ccccc3nc12,3.74 µM (inactive),2.45 µM (inactive),3.85 µM (inactive),3.53 µM (inactive),3.7 µM (inactive),1.86 µM (inactive),2.82 µM (inactive),4.82 µM (inactive),1.61 µM (inactive),2.08 µM (inactive),1.81 µM (inactive),19.6 µM (inactive),4.03 µM (inactive),3.15 µM (inactive),5.26 µM (inactive),,2.31 µM (inactive)
CNc1nc(N)cc(O)n1,> 100 µM (inactive),> 100 µM (inactive),> 100 µM (inactive),> 100 µM (inactive),> 100 µM (inactive),> 100 µM (inactive),> 100 µM (inactive),> 100 µM (inactive),> 100 µM (inactive),> 100 µM (inactive),> 100 µM (inactive),,> 100 µM (inactive),> 100 µM (inactive),> 100 µM (inactive),> 100 µM (inactive),
Nc1nc(Cl)cc(NCCCCCCCCCCNc2cc(Cl)nc(N)n2)n1,0.043 µM (active),71.9 µM (inactive),2.18 µM (inactive),6.44 µM (inactive),4 µM (inactive),22 µM (inactive),1.05 µM (active),87.3 µM (inactive),3.26 µM (inactive),12.2 µM (inactive),,28.6 µM (inactive),10.9 µM (inactive),25.6 µM (inactive),22.6 µM (inactive),2.34 µM (inactive),13.9 µM (inactive)
C/C(=N\NS(=O)(=O)c1ccc(C)cc1)c1ccc[n+]([O-])n1,> 100 µM (inactive),> 100 µM (inactive),36.8 µM (inactive),39.6 µM (inactive),> 100 µM (inactive),> 100 µM (inactive),> 100 µM (inactive),> 100 µM (inactive),> 100 µM (inactive),99.3 µM (inactive),> 100 µM (inactive),32.3 µM (inactive),> 100 µM (inactive),25.1 µM (inactive),37.9 µM (inactive),26.9 µM (inactive),
Cc1ccc2nc(NC(=O)C(=O)C(C#N)c3ccc(Cl)cc3)sc2c1 (stereo not drawn),> 50 µM (inactive),> 50 µM (inactive),> 50 µM (inactive),> 50 µM (inactive),> 50 µM (inactive),> 50 µM (inactive),> 50 µM (inactive),> 50 µM (inactive),> 50 µM (inactive),> 50 µM (inactive),,> 50 µM (inactive),> 50 µM (inactive),> 50 µM (inactive),> 50 µM (inactive),,> 50 µM (inactive)
O=C1C2c3[nH]c4ccccc4c3C3CCCC3C2C(=O)N1c1ccccc1 (stereo not drawn),,> 100 µM (inactive),> 100 µM (inactive),> 100 µM (inactive),> 100 µM (inactive),,,> 100 µM (inactive),> 100 µM (inactive),61.8 µM (inactive),> 100 µM (inactive),,> 100 µM (inactive),,40.6 µM (inactive),,> 100 µM (inactive)
CN(C)CC(/C(Cc1ccccc1)=N\NC(=O)c1ccncc1)c1ccccc1 (stereo not drawn),83.8 µM (inactive),46.2 µM (inactive),16.4 µM (inactive),25.5 µM (inactive),23.6 µM (inactive),33.8 µM (inactive),32.3 µM (inactive),38 µM (inactive),33.4 µM (inactive),32.8 µM (inactive),,19.2 µM (inactive),,44.3 µM (inactive),36.1 µM (inactive),4.17 µM (inactive),28.7 µM (inactive)
C[C@@]1(Cc2ccccc2)C(=O)N2[C@@H](CO)C(c3ccccc3)O[C@]2(C)c2ccccc21 (stereo partly drawn),> 100 µM (inactive),,76 µM (inactive),> 100 µM (inactive),> 100 µM (inactive),> 100 µM (inactive),,> 100 µM (inactive),> 100 µM (inactive),> 100 µM (inactive),,> 100 µM (inactive),> 100 µM (inactive),26.2 µM (inactive),32 µM (inactive),> 100 µM (inactive),> 100 µM (inactive)
COC(=O)C(C)Oc1ccc(O)cc1 (stereo not drawn),> 100 µM (inactive),> 100 µM (inactive),> 100 µM (inactive),> 100 µM (inactive),> 100 µM (inactive),> 100 µM (inactive),> 100 µM (inactive),> 100 µM (inactive),20.6 µM (inactive),> 100 µM (inactive),> 100 µM (inactive),> 100 µM (inactive),> 100 µM (inactive),> 100 µM (inactive),> 100 µM (inactive),> 100 µM (inactive),
O=C1c2ccccc2C(=O)c2c1ccc(O)c2O [ATHRAQUINONES A],> 100 µM (inactive),42.3 µM (inactive),36.5 µM (inactive),77.6 µM (inactive),26.9 µM (inactive),> 100 µM (inactive),71.1 µM (inactive),,32 µM (inactive),31.3 µM (inactive),39.5 µM (inactive),38.6 µM (inactive),57.8 µM (inactive),39.5 µM (inactive),28.2 µM (inactive),,40.8 µM (inactive)
